In US10975077B2 (Novira Therapeutics, Inc., priority 2016, dated 2021):

Each molecule was assayed on HBV (encapsidated HBV DNA, HepG2.2.15 cells) (assay: HBV replication inhibition assay, BDNA assay in HepG2.2.15 cells). Conditions: Activity in BDNA-assay.
Assay type: cell-based
Summary of the method: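 HepG2.2.15 cells (stably integrated HBV, 40,000/well) treated with serially diluted compound in 0.5% DMSO for 6 days, medium and compound refreshed at day 3. DNase-treated supernatant lysed with proteinase K; encapsidated HBV DNA quantified by bDNA, percent inhibition versus DMSO controls, EC50 by nonlinear fit.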
For `CN1CC(CNCC(F)F)Cn2nc3c(c2C1=O)CN(C(=O)Nc1ccc(F)c(C(F)(F)F)c1F)CC3` (single isomer, unassigned) [Compound 131_E2, (S*)—N-(2,4-difluoro-3-(trifluoromethyl)phenyl)-8-(((2,2-difluoroethyl)amino)methyl)-10-methyl-11-oxo-1,3,4,7,8,9,10,11-octahydro-2H-pyrido[4′,3′:3,4]pyrazolo[1,5-a][1,4]diazepine-2-carboxamide], the EC50 was 100 to 500 nM. Work on `C=CC(O)C1CN(C)C(=O)c2c3c(nn2C1)CC(C)N(C(=O)Nc1ccc(F)c(C#N)c1)C3` (single isomer, unassigned) [Compound 123_D2, (3R,8S*)—N-(3-cyano-4-fluorophenyl)-8-((S*)-1-hydroxyallyl)-3,10-dimethyl-11-oxo-1,3,4,7,8,9,10,11-octahydro-2H-pyrido[4′,3′:3,4]pyrazolo[1,5-a][1,4]diazepine-2-carboxamide] yielded an EC50 of 100 to 500 nM.

Same assay, conditions: Hepatitis B virus, HepG2.2.15, Activity in BDNA-assay
`C[C@@H]1Cc2nn3c(c2CN1C(=O)Nc1ccc(F)c(Cl)c1)C(=O)N(CC(F)F)CC(CO)C3` (single isomer, unassigned) [Compound 092_D1, (3R,8R*)—N-(3-chloro-4-fluorophenyl)-10-(2,2-difluoroethyl)-8-(hydroxymethyl)-3-methyl-11-oxo-1,3,4,7,8,9,10,11-octahydro-2H-pyrido[4′,3′:3,4]pyrazolo[1,5-a][1,4]diazepine-2-carboxamide] showed an EC50 of 1 to 100 nM. Work on `CC1CN(C)C(=O)c2c3c(nn2C1)CCN(C(=O)Nc1ccc(F)c(Cl)c1)C3` (stereo not shown) [Compound 014, N-(3-chloro-4-fluoro-phenyl)-8,10-dimethyl-11-oxo-1,3,4,7,8,9-hexahydropyrido[2,3]pyrazolo[2,4-b][1,4]diazepine-2-carboxamide] yielded an EC50 of 1 to 100 nM. `CNCC1CN(C)C(=O)c2c3c(nn2C1)CCN(C(=O)Nc1ccc(F)c(C(F)(F)F)c1)C3` (stereo not shown) [Compound 094, N-[4-fluoro-3-(trifluoromethyl)phenyl]-10-methyl-8-(methylaminomethyl)-11-oxo-1,3,4,7,8,9-hexahydropyrido[2,3]pyrazolo[2,4-b][1,4]diazepine-2-carboxamide] showed an EC50 of 100 to 500 nM. With `CSC1CN(C)C(=O)c2c3c(nn2C1)CCN(C(=O)Nc1ccc(F)c(Cl)c1)C3` (stereo not shown) [Compound 025, N-(3-chloro-4-fluorophenyl)-10-methyl-8-(methylthio)-11-oxo-1,3,4,7,8,9,10,11-octahydro-2H-pyrido[4′,3′:3,4]pyrazolo[1,5-a][1,4]diazepine-2-carboxamide] the EC50 was 1 to 100 nM. With `CN1CC(CNCC(F)F)Cn2nc3c(c2C1=O)CN(C(=O)Nc1ccc(F)c(C(F)(F)F)c1F)CC3` (single isomer, unassigned) [Compound 131_E1, (R*)—N-(2,4-difluoro-3-(trifluoromethyl)phenyl)-8-(((2,2-difluoroethyl)amino)methyl)-10-methyl-11-oxo-1,3,4,7,8,9,10,11-octahydro-2H-pyrido[4′,3′:3,4]pyrazolo[1,5-a][1,4]diazepine-2-carboxamide] the EC50 was 100 to 500 nM. In the case of `Cn1c(CO)cn2nc3c(c2c1=O)CN(C(=O)Nc1ccc(F)c(Cl)c1)CC3` [Compound 041, N-(3-chloro-4-fluorophenyl)-8-(hydroxymethyl)-9-methyl-10-oxo-3,4,9,10-tetrahydropyrido[4′,3′:3,4]pyrazolo[1,5-a]pyrazine-2 (1H)-carboxamide], the EC50 is reported as 1 to 100 nM. `CN1CC(F)Cn2nc3c(c2C1=O)CN(C(=O)Nc1ccc(F)c(Br)c1)CC3` (stereo not shown) [Compound 007, N-(3-bromo-4-fluorophenyl)-8-fluoro-10-methyl-11-oxo-1,3,4,7,8,9,10,11-octahydro-2H-pyrido[4′,3′:3,4]pyrazolo[1,5-a][1,4]diazepine-2-carboxamide] gave an EC50 of 1 to 100 nM. `CN1CC(CNCC(F)F)Cn2nc3c(c2C1=O)CN(C(=O)Nc1ccc(F)c(C(F)(F)F)c1)CC3` (stereo not shown) [Compound 119, 8-(((2,2-difluoroethyl)amino)methyl)-N-(4-fluoro-3-(trifluoromethyl)phenyl)-10-methyl-11-oxo-1,3,4,7,8,9,10,11-octahydro-2H-pyrido[4′,3′:3,4]pyrazolo[1,5-a][1,4] diazepine-2-carboxamide] showed an EC50 of 1 to 100 nM.
